Entries after “also recorded” stand apart in the source; their conditions may differ.
Key:
MEFs [1] = assay: Cell proliferation by Trypan blue exclusion assay in MEFs; type: cell-based, mouse
Description: (§1) The rate of cell proliferation was evaluated by the Trypan blue exclusion assay under inverted microscope. Cell migration was performed by the “scratch” assay as described, exposing cells to the peptides for 18 h (33). For the transwell-based migration assay, MEFs were seeded on 8 μm pore size transwells (Corning) and after 5 days exposure to the peptides at the indicated concentration, cell number was evaluated in the bottom compartment. All in vitro experiments were performed in triplicate and similar results were obtained.
(§2) Subsequently MEFs were subjected to scratch wound migration assays in vitro, following exposure to GHRH and 31-38 at 100 nM. […] A considerable, notwithstanding not significant, stimulation of cell migration, by about 2-fold as compared to the controls, was also evidenced at 500 nM GHRH or 31-38. In order to rule out the possibility that the results of these two migration assays were simply due to the increased proliferation, MEFs were exposed to the peptide analogs and cell proliferation was evaluated.

[2] = system: focal adhesion kinase (FAK); assay: Immunoblot analysis of FAK expression in MEFs; type: cell-based, mouse; settings: 100 nM, 24 h, Western blot
Description: (§3) hGHRH(1-29)NH2 was obtained from Sigma. Agonist JI-38 was synthesized as reported (24, 26). The peptides were dissolved in phosphate buffered saline (PBS) at the indicated concentrations. Controls contained solvent alone. Fibroblasts were isolated using standard methods and maintained in Dulbecco's Modified Eagle Medium containing 10% FBS and antibiotics/antimycotics. For all experiments, primary fibroblasts of less than 10 passages old were used. For Western blot analysis, antibodies for αSMA, FAK and actin were obtained from Sigma while for SV1; the antibody 2317/5 was used (35). The same antibody was also used for the immunohistochemistry as previously described (36). Histology was performed on standard 5 μm sections of paraffin embedded material stained with hematoxylin/eosin. βGal-staining was performed in lung fibroblasts, isolated from transgenic mice bearing an αSMA-beta galactosidase reporter transgene. After treatment with the peptides for 24 hours, cells were washed (three times each for 5 min) with 0.1M PBS (pH 7.4), and fixed with 0.05% glutaraldehyde in PBS, for 10 min at room temperature. After three more washes, cells were stained with 1 mg/ml of 5-bromo-4-chloro-3indonyl β-D-galactopyranoside, 5 mM potassium ferrocyanide, 5 mM potassium ferricyanide and 2 mM MgCl2) overnight at 37° C.
(§4) αSMA is an actin isoform that confers tensional and contractile activity (25,26). […]

subcutaneous peptidases = settings: cited from earlier work
[3] = system: α-smooth muscle actin (αSMA); assay: Immunoblot analysis of αSMA expression in MEFs; type: cell-based, mouse
Description: as §3
αSMA is an actin isoform that confers tensional and contractile activity (25,26). Typically SMA is selectively expressed in smooth muscle cells of adult animals, but is induced in activated fibroblasts (myofibroblasts) during wound healing, within the stroma of many tumors, and in general under conditions where there is extensive tissue reorganization and regeneration (27,28). […] Of interest, this effect was significant at a concentration of 100 nM but not 500 nM of either peptide. A similar pattern of expression was found for focal adhesion kinase (FAK), an enzyme which plays a role in cell migration and invasion (29). The activation of αSMA in fibroblasts following GHRH treatment was confirmed in lung fibroblasts isolated from transgenic mice bearing a reporter β-galactosidase (βGal) transgene under the regulation of the αSMA promoter/enhancer (30). Cells from these mice display βGal positivity when αSMA expression is activated (30).

MEFs [4] = assay: Transwell-based migration assay (8 μm pore) of MEFs; type: cell-based, mouse; settings: for increase of migration through 8 μm-pore transwells compared to controls / stimulation of cell migration through transwells compared to controls: 5 days exposure; for increase of migration through 8 μm-pore transwells compared to controls: p<0.05; for stimulation of cell migration through transwells compared to controls: not significant
Description: as §1, §2

[5] = system: 4 mm circular skin wounds; assay: Wound healing assay in vivo, 4 mm skin biopsy wounds, wound area; settings: mice; for wound healing compared to controls: 100 nM applied twice daily to the wound
Description: (§5) Wild-type mice of mixed C57BL6/FVB genetic background, originally obtained by Jackson Laboratories were maintained in our laboratory. Care of animals was in accord with University of Athens Institutional guidelines. The reporter αSMA-βGal mice have been described elsewhere (32). Wound healing assay in vivo was performed after administration of anesthesia (100 mg/kg ketamine, 10 mg/kg xylazine). Mice were shaved in the back, wiped with ethanol and wounds were cut using a biopsy punch (4 mm). The skin was grabbed at dorsal midline and placed over a cardboard backing on one side of the skin fold. The biopsy punch was pressed until both layers of the skin were punched and the cardboard was reached. Four wounds were performed per mouse, two on each side of the dorsal midline, at equal distance, so that the tension of the skin would be equal all over the mouse back and would not influence the contraction of the wounds. The experimental protocol was reviewed and approved by the University of Athens Animal Experimentation Committee. GHRH and JI-38 (100 nM) were applied twice daily in a volume of approximately 50 μl. At least 10 wounds for each of the control (vehicle, PBS), GHRH or JI-38 were observed. In order to avoid study variation due to the wound healing variability between different experimental animals, each mouse was its own control. For wound area measurements digital pictures of wounds were analyzed by the ImageJ (N1H) software. Wound size was monitored over time relative to a 4 mm diameter circular paper cutout placed next to the wound as previously described (38). For histology, 4-6 wounds per time point per group were analyzed. Similar results were obtained among different mice and histological sections for each group and representative are shown.
In order to evaluate the effect of GHRH on wound healing in vivo, wild type mice were subjected to 4 mm skin biopsies and the healing of the inflicted wounds in the presence or absence of GHRH and JI-38 at 100 nM was observed daily. In order to avoid variation in the wound healing process between different experimental animals, a control wound was always included in each mouse, thus permitting paired analysis.

[6] = system: 4 mm circular skin wounds; assay: Histology, fibroblast counting and Van Gieson staining of 4 mm skin wounds; type: in vivo, mice; settings: for content of fibroblasts in wounds (histology) compared to controls: day 5, 100 nM twice daily; for increase of fibroblast density in the wound area: vs controls, direct counting, 100 nM twice daily, p<0.05, FIG. 6
Description: FIG. 6. Quantification of fibroblast content in 4 mm circular skin wounds in mice exposed to GHRH or GHRH agonist JI-38 twice per day at 100 nM on day 5 and 8. Fibroblast number was assessed by direct counting of fibroblast in at least 3 random optic fields in the wound areas under light microscope and expressed relative to the fibroblast content in the controls on day 5. Data are expressed as mean±SEM. *, p<0.05.
as §3, §5
Tissue sections from mice wounds were de-paraffinized and rehydrated in distilled H2O. These sections were then stained in orcein (Sigma) 1% w/v in 96% ethanol for 30 min at room temperature and washed in distilled H2O. […]

pituitary GHRH receptor = settings: subcutaneous administration; cited from earlier work
[7] = system: αSMA promoter-βGal reporter transgene; assay: βGal staining of lung fibroblasts from αSMA promoter-βGal reporter transgenic mice; type: cell-based; settings: 100 nM and 500 nM, 24 h
Description: as §3, §4

MEFs [8] = assay: Scratch wound migration assay of MEFs; type: cell-based, mouse; settings: 100 nM, 18 h
Description: as §1, §2

SV1 = assay: Immunoblot analysis of SV1 expression in MEFs; type: cell-based, mouse; settings: 500 nM, 24 h
Description: as §3, with “After three more washes, cells were stained with 1 mg/ml of 5-bromo-4-chloro-3indonyl β-D-galactopyranoside, 5 mM potassium ferrocyanide, 5 mM potassium ferricyanide and 2 mM MgCl2) overnight at 37° C.” left out
It was evaluated whether MEFs express the receptor for GHRH SV1. Primary MEFs were exposed to GHRH and agonistic GHRH analog JI-38 (24, 26) at 100 nM and 500 nM for 24 h and SV1 expression was then assessed by immunoblot analysis.

Substance	proliferation of MEFs (MEFs [1]; 100 nM)	proliferation of MEFs (MEFs [1]; 500 nM)	FAK expression [2]	SMA expression ([3]; 100 nM, 24 h, immunoblot)	SMA expression ([3]; 500 nM, compared with 100 nM)	migration of MEFs in 8 μm-pore transwell system (figure legend) (MEFs [4]; 100 nM)	increase of migration through 8 μm-pore transwells compared to controls (MEFs [4]; 100 nM)	stimulation of cell migration through transwells compared to controls (MEFs [4]; 500 nM)	wound healing compared to controls [5]	day on which acceleration of wound healing was first evidenced ([5]; 100 nM twice daily)	time to nearly complete healing ([5]; 100 nM twice daily)	content of fibroblasts in wounds (histology) compared to controls [6]	collagen fibers in the lamina propria, Van Gieson staining ([6]; day 8, 100 nM twice daily)	histology of epidermis, dermis and stroma ([6]; day 8, 100 nM twice daily)	increase of fibroblast density in the wound area [6]	migration of MEFs in scratch assay compared to controls (MEFs [8])	further results
[Dat^1, Gln^8, Orn^12,21, Abu^15, Nle^27, Asp^28, Agm^29]hGH-RH(1-29)NH2 [JI-38]	no considerable effect	no considerable effect	induced	stimulated; also recorded: induced	less pronounced	significantly increased	~3 fold	about 2 fold	considerable acceleration	3 days	about 10 days post-incision	to a lesser extent; also recorded: considerable increase	could not be seen	dense and rich in fibroblasts	~40%	considerably increased	stability against subcutaneous peptidases (subcutaneous peptidases): resistance to degradation by subcutaneous peptidases; potency in transwell-based migration assay relative to GHRH (MEFs [4]): more potent than GHRH; migration of MEFs in 8 μm-pore transwell system (figure legend) (MEFs [4]; 500 nM): significantly increased; potency relative to GHRH in in vivo growth hormone release assay (pituitary GHRH receptor): much more potent than GHRH; increase in fraction of βGal-positive (αSMA-lacZ positive) cells compared to untreated controls ([7]; listed as 31-38): about 3 fold; increase in fraction of βGal-positive (αSMA-lacZ positive) cells compared to untreated controls ([7]; listed as 51-38): ~3 fold; migration of MEFs in scratch assay compared to controls (MEFs [8]; listed as 51-38): increased migration
hGHRH(1-29)NH2	stimulated proliferation	no considerable effect	induced	stimulated; also recorded: induced	less pronounced	significantly increased	about 2.5 fold	about 2 fold	considerable acceleration	3 days	about 10 days post-incision	increased content of fibroblasts; also recorded: considerable increase	nearly normally arranged collagen fibers	almost normal with a diffuse mild inflammatory infiltration	about 80%	considerably increased; also recorded: increased migration	levels of SV1 expression (SV1): upregulated; potency histologically and macroscopically at equimolar concentrations ([5]; 100 nM twice daily): more potent than 31-38; reformation of the covering epithelium ([6]; day 8, 100 nM twice daily): almost complete

Source: patent US20130261058A1, “ACCELERATION OF WOUND HEALING BY GROWTH HORMONE RELEASING HORMONE AND ITS AGONISTS” (University of Miami, priority 2010, published 2013)
